Test results taken from the CombiSolv-Exp solvation set (Vermeire and Green 2021).

Assay: solvent given as SMILES

CC1=CCC(=C(C)C)CC1
Settings	solvation free energy, 298 K [kcal/mol]
in O	0.16

CC12CCC(=O)C=C1CCC1C2C(O)CC2(C)C1CCC2(O)C(=O)CO (stereo not given)
Settings	solvation free energy, 298 K [kcal/mol]
in C=CCCCCCCC=C	-21.7
in C=CCCCCCCCCCCCCCC	-20.9
in O	-25.4

CC(C)CCCCCCCOC(=O)c1ccccc1C(=O)OCCCCCCCC(C)C
Settings	solvation free energy, 298 K [kcal/mol]
in O	-5.93

OCCCO
Settings	solvation free energy, 298 K [kcal/mol]
in O	-9.96

C=C(C)C1CCC2(C)CCC=C(C)C2C1 (stereo not given)
Settings	solvation free energy, 298 K [kcal/mol]
in O	-0.16

CCCCS
Settings	solvation free energy, 298 K [kcal/mol]
in O	-0.88

O=C1NC(=O)c2ccccc21
Settings	solvation free energy, 298 K [kcal/mol]
in O	-9.61

OCC(F)(F)F
Settings	solvation free energy, 298 K [kcal/mol]
in C1COCCO1	-5.63
in CC(=O)N(C)C	-6.81
in CN(C)C=O	-6.93
in O	-4.31

CCCCCCCCCCCCCCCCCCCCCCCC
Settings	solvation free energy, 298 K [kcal/mol]
in CC(=O)N(C)C	-16.4
in CC(C)(C)O	-14.6
in CC(C)O	-13.6
in CCC(C)=O	-14.8
in CCCCCCCCCCO	-15.2
in CCCCCCO	-14.2
in CCCCCO	-14.1
in CCCCO	-13.9
in CCCCOC(C)=O	-15.4
in CCCO	-13.8
in CCO	-13.4
in CN(C)C=O	-16.4
in CO	-12.3
in COC(C)(C)C	-16.3
in ClCCl	-16
in O	5.24

Cc1c[nH]c2ccccc12
Settings	solvation free energy, 298 K [kcal/mol]
in O	-5.88

CCCCCCCO
Settings	solvation free energy, 298 K [kcal/mol]
in CC(C)CC(C)(C)C	-5.82
in CCCCCC	-5.59
in CCCCCCC	-5.59
in CCCCCCCCCCCCCCCC	-5.43
in CCCCCCO	-8.08
in CO	-7.6
in NC=O	-6.38
in O	-4.24

CC1CCC(C)(C)C1 (stereo not given)
Settings	solvation free energy, 298 K [kcal/mol]
in O	2.47

O=C=O
Settings	solvation free energy, 298 K [kcal/mol]
in Brc1ccccc1	-0.35
in C1CCC2CCCCC2C1	-0.22
in C1CCCCC1	-0.32
in C1CCOC1	-1.12
in C1COCCO1	-1.16
in C=CCCCC	-0.56
in C=CCCCCCC	-0.45
in C=CCCCCCCCC	-0.35
in CC1COC(=O)O1	-0.75
in CC(C)(C)O	-0.41
in CC(C)=O	-1.1
in CC(C)CO	-0.37
in CC(C)O	-0.42
in CCC(C)=O	-0.98
in CCC(C)O	-0.33
in CCCCCC	-0.48
in CCCCCCC	-0.41
in CCCCCCCC	-0.35
in CCCCCCCCCC	-0.27
in CCCCCCCCCCCCCCCC	-0.12
in CCCCCCCCCCO	-0.13
in CCCCCCCCO	-0.22
in CCCCO	-0.4
in CCCCOCCO	-0.26
in CCCCOCCOCCO	-0.23
in CCCCOCCOCCOCCO	-0.48
in CCCO	-0.48
in CCO	-0.57
in CCOCCOCCO	-0.51
in CCOCCOCCOCC	-0.69
in CCc1ccccc1	-0.21
in CN1CCCC1=O	-0.82
in CN(C)C=O	-0.95
in CN(C)P(=O)(N(C)C)N(C)C	-0.9
in CO	-0.85
in COC(=O)CC#N	-0.67
in COC(C)=O	-1.13
in COCCO	-0.65
in COCCOC	-0.86
in COCCOCCO	-0.7
in COCCOCCOC	-0.84
in COCCOCCOCCO	-0.5
in COCCOCCOCCOC	-0.7
in COCCOCCOCCOCCOC	-0.77
in CS(C)=O	-0.69
in Cc1ccc(C)cc1	-0.45
in Cc1cccc(C)c1	-0.45
in Cc1ccccc1	-0.48
in Cc1ccccc1C	-0.43
in ClC(Cl)(Cl)Cl	-0.61
in ClC(Cl)Cl	-0.61
in ClCCCl	-0.78
in ClCCl	-0.68
in Clc1ccccc1	-0.5
in Nc1ccccc1	-0.44
in O	0.11
in O=C1CCCC1	-0.89
in O=C1CCCCC1	-0.79
in O=CN1CCOCC1	-0.71
in OCCCOCCCO	-0.25
in OCCO	-0.17
in OCCOCCO	-0.28
in OCc1ccccc1	-0.36
in c1ccccc1	-0.58

O=C(O)CCCCCC(=O)O
Settings	solvation free energy, 298 K [kcal/mol]
in CCO	-14.2
in CCOCC	-12.8

CN(C)C(=O)Nc1ccc(Cl)c(Cl)c1
Settings	solvation free energy, 298 K [kcal/mol]
in CC(C)CCO	-14.6
in CCCC(C)O	-14.5
in CCCCCl	-13.3
in CCCCOC(C)=O	-14.5
in CCCCOCCCC	-12.6
in CCOC(C)=O	-14.6
in COC(C)=O	-14.6
in ClC(Cl)(Cl)Cl	-12.4
in ClC(Cl)Cl	-14.5
in ClCCCl	-14.3
in ClCCl	-14.2
in Clc1ccccc1	-13.6
in O	-10.9

CC(=O)NS(=O)(=O)c1ccc(N)cc1
Settings	solvation free energy, 298 K [kcal/mol]
in O	-18.4

FS(F)(F)(F)(F)F
Settings	solvation free energy, 298 K [kcal/mol]
in Brc1ccccc1	0.67
in C1CCOC1	0.05
in C1COCCO1	0.52
in CC1COC(=O)O1	0.98
in CC#N	0.25
in CC(=O)N(C)C	0.76
in CC(C)(C)O	-0.11
in CC(C)=O	-0.07
in CC(C)CC(C)(C)C	-0.47
in CC(C)CO	0.1
in CCC(C)O	0.26
in CCCCCC	-0.41
in CCCCCCC	-0.32
in CCCCCCCC	-0.23
in CCCCCCCCC	-0.16
in CCCCCCCCCC	-0.06
in CCCCCCCCCCC	0
in CCCCCCCCCCCC	0.06
in CCCCCCCCCCCCC	0.12
in CCCCCCCCCCCCCC	0.15
in CCCCCCCCCCCCCCC	0.18
in CCCCCCCCCCCCCCCC	0.22
in CCCCCCCCCCCO	0.49
in CCCCCCCCCCO	0.47
in CCCCCCCCCO	0.43
in CCCCCCCCO	0.41
in CCCCCCCO	0.37
in CCCCCCO	0.34
in CCCCCO	0.29
in CCCCO	0.26
in CCCO	0.18
in CCO	0.14
in CN(C)C=O	0.83
in CN(C)P(=O)(N(C)C)N(C)C	0.66
in CNC=O	1.02
in CO	0.26
in CS(C)=O	-0.05
in Cc1ccc(C)cc1	0.19
in Cc1cccc(C)c1	0.19
in Cc1ccccc1C	0.27
in ClC(Cl)(Cl)Cl	-0.03
in Clc1ccccc1	0.35
in N#Cc1ccccc1	0.71
in O	3.04
in O=C1CCCC1	0.49
in O=C1CCCCC1	0.52

CC1=CCC2(C(C)C)CC12 (stereo not given)
Settings	solvation free energy, 298 K [kcal/mol]
in O	0.5

CCC(C)Br (stereo not given)
Settings	solvation free energy, 298 K [kcal/mol]
in C=CCCCCCCCCCCCCCC	-3.96
in O	-0.27

Cc1nnc(NS(=O)(=O)c2ccc(N)cc2)s1
Settings	solvation free energy, 298 K [kcal/mol]
in O	-19.3

O=Cc1ccncc1
Settings	solvation free energy, 298 K [kcal/mol]
in O	-7
